From paper PMC11173529, “Structure–Activity Relationship Studies in a Series of Xanthine Inhibitors of SLACK Potassium Channels” (Molecules, 2024)

Key:
Assay type in all cases: cell-based
[1] = biological target: T1, CaV3.2 (Homo sapiens, UniProt O95180); assay: Tl+-flux selectivity panel in HEK-293 cells: CaV3.2; settings: HEK293, 10 µM test compound, relative to control bepridil, read-out: Percent Inhibition ± SEM
T1 construct: expressed in transfected cells; host or cells: HEK293
Experimental: (§1) With a handful of analogs that offered improved SLACK potency relative to hit compound 8, we next proceeded to investigate the ancillary pharmacology of such compounds, both with respect to other Slo family members as well as versus a spectrum of diverse ion channels (Table 5). Thus, we screened four compounds (32, 48, 70, and 71) at 10 µM in our in-house selectivity panel of Tl^+-flux assays in HEK-293 cells stably expressing the target of interest. […] Some valuable SAR was noted as well. […] Reduction of inhibition at Maxi-K α1/β4 also followed. This SAR will be important to bear in mind for continued optimization within this series. […] Of particular note is the lack of significant hERG activity in this series, as activity versus that counter-target has been an issue with other SLACK inhibitors.
(§2) Stably transfected monoclonal HEK293 cell lines expressing Slick, Maxi-K α1/β3, Maxi-K α1/β4, CaV3.2, GIRK 1/2, KV2.1, KV7.2, NaV1.7, and TASK-1 were generated as previously described. Stably transfected monoclonal HEK293 cell lines expressing hERG were generated as previously described. CHO-K1 cells expressing human Slack and disease-associated human Slack mutations, G288S and A934T, were generated by transfecting a PiggyBac TRE mammalian expression vector (VectorBuilder, Chicago, IL, USA) containing KCNT1. FuGENE 6 (Promega, Madison, WI, USA) transfection reagent and protocol, together with Opti-MEM (Thermo Fisher Scientific, Walkham, MA, USA), were utilized.
(§3) The Tl^+ flux assays were conducted as previously described with modifications optimized for individual cell lines as described below. Following removal of cell culture media, cells were loaded with Tl^+-sensitive dye loading solution containing Thallos-AM (ION Biosciences, San Marcos, TX, USA), 1.25 mM Probenecid, and 0.3% Pluronic F-127 (MilliporeSigma, Burlington, MA, USA), in assay buffer comprised of Hanks Balanced Salt Solution (HBSS) (Thermo Fisher Scientific, Waltham, MA, USA) and 20 mM HEPES (Corning, Corning, NY, USA) at room temperature for one-hour. Dye loading solution was replaced with 20 μL/well of assay buffer prior to assaying. Cell plates were then loaded onto a Panoptic kinetic imaging plate reader (WaveFront Biosciences, Franklin, TN, USA). Data were acquired at 5 Hz (excitation 482 ± 35 nm, emission 536 ± 40 nm) for 10 s, at which time 20 μL/well of test compounds in assay buffer at 2-fold above the desired final concentration was added and allowed to incubate for 120 s. Next, 10 μL/well of Tl^+ stimulus buffer (129 mM Na gluconate, 1.2 mM CaSO4, 1 MgSO4, 1 mM Na2HPO4, 4.17 mM NaHCO3, 5.56 mM glucose, 2.5 mM Tl2SO4, and 10 mM HEPES pH 7.3) was added. Imaging was concluded after an additional 120 s.

[2] = biological target: T2, NaV1.7 (Homo sapiens, UniProt Q15858); assay: Tl+-flux selectivity panel in HEK-293 cells: NaV1.7; settings: HEK293, 10 µM test compound, relative to control TC-N 1752, read-out: Percent Inhibition ± SEM
T2 construct: expressed in transfected cells; host or cells: HEK293
Experimental: as §1, §2, §3

[3] = biological target: T3, GIRK 1/2 (Homo sapiens, UniProt P48051+P48549); assay: Tl+-flux selectivity panel in HEK-293 cells: GIRK 1/2; settings: HEK293, 10 µM test compound, relative to control SCH23390, read-out: Percent Inhibition ± SEM
T3 construct: expressed in transfected cells; host or cells: HEK293
T3 sequence (P48549 1-501): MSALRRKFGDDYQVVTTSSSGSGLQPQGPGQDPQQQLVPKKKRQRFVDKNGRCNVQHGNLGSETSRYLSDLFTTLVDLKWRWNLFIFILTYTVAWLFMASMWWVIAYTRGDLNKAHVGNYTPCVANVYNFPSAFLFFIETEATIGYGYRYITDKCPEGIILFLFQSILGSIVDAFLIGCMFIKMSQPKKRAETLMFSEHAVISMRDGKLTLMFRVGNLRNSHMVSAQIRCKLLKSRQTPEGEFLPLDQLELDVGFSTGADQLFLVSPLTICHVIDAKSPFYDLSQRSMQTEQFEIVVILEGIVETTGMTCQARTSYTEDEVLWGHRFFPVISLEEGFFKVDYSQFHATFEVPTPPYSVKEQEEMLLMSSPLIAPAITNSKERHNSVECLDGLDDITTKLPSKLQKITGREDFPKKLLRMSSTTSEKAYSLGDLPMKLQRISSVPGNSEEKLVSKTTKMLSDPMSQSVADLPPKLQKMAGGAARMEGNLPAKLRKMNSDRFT
T3 sequence (P48051 1-423): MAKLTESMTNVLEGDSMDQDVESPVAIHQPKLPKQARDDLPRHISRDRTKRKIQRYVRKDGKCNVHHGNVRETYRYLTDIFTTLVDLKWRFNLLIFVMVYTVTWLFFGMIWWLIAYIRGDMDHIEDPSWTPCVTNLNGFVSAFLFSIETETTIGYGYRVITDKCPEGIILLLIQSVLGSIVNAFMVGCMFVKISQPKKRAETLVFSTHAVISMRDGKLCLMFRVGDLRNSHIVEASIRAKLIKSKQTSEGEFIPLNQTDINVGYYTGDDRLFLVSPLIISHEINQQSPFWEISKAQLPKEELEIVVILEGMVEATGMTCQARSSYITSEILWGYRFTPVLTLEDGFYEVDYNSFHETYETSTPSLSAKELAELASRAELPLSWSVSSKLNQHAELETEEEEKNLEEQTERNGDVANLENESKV
Experimental: as §1, §2, §3

[4] = biological target: T4, KV7.2 (Homo sapiens, UniProt O43526); assay: Tl+-flux selectivity panel in HEK-293 cells: KV7.2; settings: HEK293, 10 µM test compound, relative to control XE991, read-out: Percent Inhibition ± SEM
T4 construct: expressed in transfected cells; host or cells: HEK293
Experimental: as §1, §2, §3

[5] = biological target: T5, Maxi-K α1/β3 (Homo sapiens, UniProt Q12791); assay: Tl+-flux selectivity panel in HEK-293 cells: Maxi-K α1/β3; settings: HEK293, 10 µM test compound, relative to control paxilline, read-out: Percent Inhibition ± SEM
T5 construct: expressed in transfected cells; host or cells: HEK293
Experimental: as §1, §2, §3

[6] = biological target: T6, hERG (Homo sapiens, UniProt Q12809); assay: Tl+-flux selectivity panel in HEK-293 cells: hERG; settings: HEK-293 cells stably expressing hERG, 10 µM test compound, relative to control bepridil, read-out: Percent Inhibition ± SEM
T6 construct: expressed in transfected cells; host or cells: HEK293
Experimental: as §1, §2, §3

[7] = biological target: T7, Maxi-K α1/β4 (Homo sapiens, UniProt Q12791); assay: Tl+-flux selectivity panel in HEK-293 cells: Maxi-K α1/β4; settings: HEK293, 10 µM test compound, relative to control paxilline, read-out: Percent Inhibition ± SEM
T7 construct: expressed in transfected cells; host or cells: HEK293
Experimental: as §1, §2, §3

[8] = biological target: T8, TASK-1 (Homo sapiens, UniProt O14649); assay: Tl+-flux selectivity panel in HEK-293 cells: TASK-1; settings: HEK293, 10 µM test compound, relative to control bepridil, read-out: Percent Inhibition ± SEM
T8 construct: expressed in transfected cells; host or cells: HEK293
Experimental: as §1, §2, §3

T6 sequence (Q12809 whole entry): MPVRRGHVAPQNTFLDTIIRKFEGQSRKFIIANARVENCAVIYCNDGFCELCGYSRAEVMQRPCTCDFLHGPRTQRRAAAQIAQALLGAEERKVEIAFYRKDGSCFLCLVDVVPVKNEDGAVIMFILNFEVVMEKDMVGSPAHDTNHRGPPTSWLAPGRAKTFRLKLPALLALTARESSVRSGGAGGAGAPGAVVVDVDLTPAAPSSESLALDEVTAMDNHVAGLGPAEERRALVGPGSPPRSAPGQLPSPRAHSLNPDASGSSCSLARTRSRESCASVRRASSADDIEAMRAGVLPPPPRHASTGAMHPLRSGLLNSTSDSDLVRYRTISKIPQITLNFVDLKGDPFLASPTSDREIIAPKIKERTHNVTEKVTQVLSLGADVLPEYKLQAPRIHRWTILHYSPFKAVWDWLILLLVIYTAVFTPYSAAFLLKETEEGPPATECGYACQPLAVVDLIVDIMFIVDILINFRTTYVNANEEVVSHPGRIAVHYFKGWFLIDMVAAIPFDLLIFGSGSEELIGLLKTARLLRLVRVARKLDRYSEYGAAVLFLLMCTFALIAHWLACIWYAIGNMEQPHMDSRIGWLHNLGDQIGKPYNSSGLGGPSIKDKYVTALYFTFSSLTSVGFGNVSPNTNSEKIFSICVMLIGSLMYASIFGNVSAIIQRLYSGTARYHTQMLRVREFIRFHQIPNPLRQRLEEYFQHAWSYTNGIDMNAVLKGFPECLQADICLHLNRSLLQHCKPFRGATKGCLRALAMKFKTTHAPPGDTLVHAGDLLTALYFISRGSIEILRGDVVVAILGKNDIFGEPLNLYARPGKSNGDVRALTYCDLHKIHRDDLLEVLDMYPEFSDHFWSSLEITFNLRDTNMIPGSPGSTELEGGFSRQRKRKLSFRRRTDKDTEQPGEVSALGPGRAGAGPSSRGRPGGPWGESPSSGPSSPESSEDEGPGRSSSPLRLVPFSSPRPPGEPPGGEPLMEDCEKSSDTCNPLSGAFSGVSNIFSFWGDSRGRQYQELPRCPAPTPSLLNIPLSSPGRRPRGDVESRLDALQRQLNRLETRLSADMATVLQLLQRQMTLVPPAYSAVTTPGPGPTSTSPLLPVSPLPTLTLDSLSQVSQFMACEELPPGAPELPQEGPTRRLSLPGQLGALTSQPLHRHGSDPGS
T1 sequence (O95180 whole entry): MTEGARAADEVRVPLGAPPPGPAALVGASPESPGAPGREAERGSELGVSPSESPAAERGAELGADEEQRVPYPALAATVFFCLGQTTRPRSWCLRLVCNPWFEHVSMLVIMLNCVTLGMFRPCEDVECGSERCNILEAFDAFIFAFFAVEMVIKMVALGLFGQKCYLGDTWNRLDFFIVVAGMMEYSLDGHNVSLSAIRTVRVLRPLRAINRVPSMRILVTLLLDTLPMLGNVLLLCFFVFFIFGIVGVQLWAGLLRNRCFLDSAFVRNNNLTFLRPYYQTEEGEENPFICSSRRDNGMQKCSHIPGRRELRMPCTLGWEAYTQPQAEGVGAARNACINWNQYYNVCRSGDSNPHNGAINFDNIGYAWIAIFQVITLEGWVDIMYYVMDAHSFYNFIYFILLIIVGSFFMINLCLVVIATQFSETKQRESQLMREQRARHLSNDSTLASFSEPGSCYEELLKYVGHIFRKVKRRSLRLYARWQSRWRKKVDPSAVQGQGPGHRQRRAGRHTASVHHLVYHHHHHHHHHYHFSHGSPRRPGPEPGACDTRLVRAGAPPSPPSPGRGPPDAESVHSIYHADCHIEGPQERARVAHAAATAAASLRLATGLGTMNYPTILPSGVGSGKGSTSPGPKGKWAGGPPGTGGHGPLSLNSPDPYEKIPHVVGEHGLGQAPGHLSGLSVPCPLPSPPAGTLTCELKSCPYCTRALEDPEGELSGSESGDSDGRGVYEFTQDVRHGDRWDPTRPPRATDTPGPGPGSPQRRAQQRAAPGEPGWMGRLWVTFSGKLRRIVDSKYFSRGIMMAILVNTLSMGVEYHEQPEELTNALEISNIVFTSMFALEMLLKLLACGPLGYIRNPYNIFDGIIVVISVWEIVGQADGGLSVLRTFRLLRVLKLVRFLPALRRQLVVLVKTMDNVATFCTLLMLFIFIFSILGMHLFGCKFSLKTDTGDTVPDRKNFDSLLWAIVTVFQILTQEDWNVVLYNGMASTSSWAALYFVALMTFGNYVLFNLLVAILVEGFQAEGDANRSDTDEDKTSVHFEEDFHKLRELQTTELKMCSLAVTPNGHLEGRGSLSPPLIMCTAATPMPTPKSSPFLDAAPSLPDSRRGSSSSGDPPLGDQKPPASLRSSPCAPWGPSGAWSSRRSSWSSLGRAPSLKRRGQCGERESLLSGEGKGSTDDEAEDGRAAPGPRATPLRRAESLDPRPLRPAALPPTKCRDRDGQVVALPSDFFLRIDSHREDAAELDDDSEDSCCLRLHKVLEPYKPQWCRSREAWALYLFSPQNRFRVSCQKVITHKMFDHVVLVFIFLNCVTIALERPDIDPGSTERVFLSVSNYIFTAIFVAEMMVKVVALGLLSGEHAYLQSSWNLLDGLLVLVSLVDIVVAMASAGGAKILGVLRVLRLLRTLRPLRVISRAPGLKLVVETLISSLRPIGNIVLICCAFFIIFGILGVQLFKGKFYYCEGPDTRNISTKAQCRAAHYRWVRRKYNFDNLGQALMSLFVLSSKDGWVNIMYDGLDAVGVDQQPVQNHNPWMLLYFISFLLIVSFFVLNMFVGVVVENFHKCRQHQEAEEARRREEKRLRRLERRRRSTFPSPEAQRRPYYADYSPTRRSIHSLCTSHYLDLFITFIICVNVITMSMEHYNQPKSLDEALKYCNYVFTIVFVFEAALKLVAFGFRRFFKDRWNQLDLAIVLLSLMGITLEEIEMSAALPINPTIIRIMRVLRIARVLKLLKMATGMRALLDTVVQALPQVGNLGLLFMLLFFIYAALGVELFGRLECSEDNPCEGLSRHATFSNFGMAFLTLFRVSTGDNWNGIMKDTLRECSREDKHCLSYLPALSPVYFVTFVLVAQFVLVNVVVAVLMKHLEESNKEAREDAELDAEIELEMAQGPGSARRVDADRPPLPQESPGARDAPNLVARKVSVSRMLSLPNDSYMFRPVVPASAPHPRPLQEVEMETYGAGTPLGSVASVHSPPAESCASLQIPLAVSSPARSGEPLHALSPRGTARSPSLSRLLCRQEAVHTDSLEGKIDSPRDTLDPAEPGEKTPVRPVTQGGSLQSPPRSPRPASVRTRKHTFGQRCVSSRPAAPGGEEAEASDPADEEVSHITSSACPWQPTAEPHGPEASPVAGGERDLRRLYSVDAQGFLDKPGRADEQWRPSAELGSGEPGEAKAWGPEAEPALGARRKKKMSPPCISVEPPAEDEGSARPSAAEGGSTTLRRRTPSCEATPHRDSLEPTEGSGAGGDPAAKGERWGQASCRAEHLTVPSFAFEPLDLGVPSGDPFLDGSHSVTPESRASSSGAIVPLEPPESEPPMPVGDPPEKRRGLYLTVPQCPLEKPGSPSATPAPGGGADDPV
T5 sequence (Q12791 whole entry): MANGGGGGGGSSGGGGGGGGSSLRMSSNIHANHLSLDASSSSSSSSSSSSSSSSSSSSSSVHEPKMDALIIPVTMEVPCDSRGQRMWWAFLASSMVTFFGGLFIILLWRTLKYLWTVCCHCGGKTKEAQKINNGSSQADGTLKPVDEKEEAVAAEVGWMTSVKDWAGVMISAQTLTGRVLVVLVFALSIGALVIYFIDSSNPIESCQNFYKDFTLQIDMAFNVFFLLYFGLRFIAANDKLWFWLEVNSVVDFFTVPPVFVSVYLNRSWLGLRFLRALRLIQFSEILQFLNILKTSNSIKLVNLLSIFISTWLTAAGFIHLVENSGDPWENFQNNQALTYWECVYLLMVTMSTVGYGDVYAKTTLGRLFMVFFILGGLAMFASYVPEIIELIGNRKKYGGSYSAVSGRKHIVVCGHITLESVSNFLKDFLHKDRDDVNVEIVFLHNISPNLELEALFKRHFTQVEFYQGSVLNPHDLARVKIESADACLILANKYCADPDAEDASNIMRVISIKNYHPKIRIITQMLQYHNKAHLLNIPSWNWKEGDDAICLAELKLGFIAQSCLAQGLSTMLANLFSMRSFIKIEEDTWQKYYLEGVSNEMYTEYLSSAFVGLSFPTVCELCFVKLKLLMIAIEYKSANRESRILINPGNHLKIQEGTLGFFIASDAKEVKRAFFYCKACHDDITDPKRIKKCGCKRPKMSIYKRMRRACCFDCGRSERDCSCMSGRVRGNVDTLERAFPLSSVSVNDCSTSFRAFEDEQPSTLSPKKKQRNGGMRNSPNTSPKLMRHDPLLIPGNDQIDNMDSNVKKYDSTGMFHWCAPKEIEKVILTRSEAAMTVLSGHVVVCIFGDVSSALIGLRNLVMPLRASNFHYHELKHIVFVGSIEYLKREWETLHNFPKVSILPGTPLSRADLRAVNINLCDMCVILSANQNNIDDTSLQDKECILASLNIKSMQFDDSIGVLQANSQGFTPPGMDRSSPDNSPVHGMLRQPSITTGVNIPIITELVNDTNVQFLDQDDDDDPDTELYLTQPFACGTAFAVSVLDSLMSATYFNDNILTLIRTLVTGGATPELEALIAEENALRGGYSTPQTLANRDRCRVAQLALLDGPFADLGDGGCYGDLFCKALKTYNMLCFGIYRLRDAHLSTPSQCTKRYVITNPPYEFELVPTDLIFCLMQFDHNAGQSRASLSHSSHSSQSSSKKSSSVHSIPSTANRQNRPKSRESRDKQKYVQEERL
T5 sequence (Q9NPA1 whole entry partner): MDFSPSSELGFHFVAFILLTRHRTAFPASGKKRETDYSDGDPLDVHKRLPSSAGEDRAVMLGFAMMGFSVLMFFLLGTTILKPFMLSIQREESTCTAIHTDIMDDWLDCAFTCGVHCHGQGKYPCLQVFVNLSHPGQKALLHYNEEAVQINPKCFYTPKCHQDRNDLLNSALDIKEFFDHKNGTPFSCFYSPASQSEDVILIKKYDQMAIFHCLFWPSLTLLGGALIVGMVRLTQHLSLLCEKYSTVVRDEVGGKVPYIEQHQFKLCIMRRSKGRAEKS

SMILES | inhibition at 10 µM [1] [%] | inhibition at 10 µM [2] [%] | inhibition at 10 µM [3] [%] | inhibition at 10 µM [4] [%] | inhibition at 10 µM [5] [%] | inhibition at 120 s, 10 µM [6] [%] | inhibition at 10 µM [7] [%] | inhibition at 10 µM [8] [%]
CCCCN(Cc1ccccc1)c1nc2c(c(=O)n(Cc3ccccc3)c(=O)n2C)n1C [Analog 70] | 16 ± 2.2 | 33 ± 1.4 | 9.2 ± 1.4 | 19 ± 0.2 | 34 ± 2.9 | 22 ± 2 | 8.5 ± 2.1 | 23 ± 2.9
CN(Cc1cccc(F)c1)c1nc2c(c(=O)n(Cc3ccccc3)c(=O)n2C)n1C [Analog 48] | 17 ± 4.2 | 39 ± 3.1 | 32 ± 3 | 15 ± 2.3 | 63 ± 1.2 | -2.8 ± 2.4 | 42 ± 4.6 | 24 ± 2.3
Cn1c(N(Cc2ccccc2)CC2CC2)nc2c1c(=O)n(Cc1ccccc1)c(=O)n2C [Analog 71] | 24 ± 3.6 | 29 ± 3 | 12 ± 0.5 | 14 ± 1.6 | 17 ± 5.2 | 23 ± 4 | 12 ± 3.9 | 4.9 ± 1.5
COc1cccc(Cn2c(=O)c3c(nc(N(C)Cc4ccccc4)n3C)n(C)c2=O)c1 [Analog 32] | 18 ± 1.6 | 41 ± 3.3 | 19 ± 1.7 | 16 ± 2.2 | 79 ± 1.4 | 4.6 ± 4.5 | 48 ± 2 | 17 ± 2.3
